In ChEMBL document CHEMBL1140913, “Discovery and structure-activity relationships of trisubstituted pyrimidines/pyridines as novel calcium-sensing receptor antagonists” (J Med Chem, 2009) one finds IC50 and solubility data, which are given here for 44 compounds.

pIC50: −log10 of the molar value. Converted amounts (≈) assume the structure as drawn.

Data set [1] concerns the target T1, Extracellular calcium-sensing receptor (Homo sapiens, UniProt P41180).
T1 sequence (P41180 whole entry): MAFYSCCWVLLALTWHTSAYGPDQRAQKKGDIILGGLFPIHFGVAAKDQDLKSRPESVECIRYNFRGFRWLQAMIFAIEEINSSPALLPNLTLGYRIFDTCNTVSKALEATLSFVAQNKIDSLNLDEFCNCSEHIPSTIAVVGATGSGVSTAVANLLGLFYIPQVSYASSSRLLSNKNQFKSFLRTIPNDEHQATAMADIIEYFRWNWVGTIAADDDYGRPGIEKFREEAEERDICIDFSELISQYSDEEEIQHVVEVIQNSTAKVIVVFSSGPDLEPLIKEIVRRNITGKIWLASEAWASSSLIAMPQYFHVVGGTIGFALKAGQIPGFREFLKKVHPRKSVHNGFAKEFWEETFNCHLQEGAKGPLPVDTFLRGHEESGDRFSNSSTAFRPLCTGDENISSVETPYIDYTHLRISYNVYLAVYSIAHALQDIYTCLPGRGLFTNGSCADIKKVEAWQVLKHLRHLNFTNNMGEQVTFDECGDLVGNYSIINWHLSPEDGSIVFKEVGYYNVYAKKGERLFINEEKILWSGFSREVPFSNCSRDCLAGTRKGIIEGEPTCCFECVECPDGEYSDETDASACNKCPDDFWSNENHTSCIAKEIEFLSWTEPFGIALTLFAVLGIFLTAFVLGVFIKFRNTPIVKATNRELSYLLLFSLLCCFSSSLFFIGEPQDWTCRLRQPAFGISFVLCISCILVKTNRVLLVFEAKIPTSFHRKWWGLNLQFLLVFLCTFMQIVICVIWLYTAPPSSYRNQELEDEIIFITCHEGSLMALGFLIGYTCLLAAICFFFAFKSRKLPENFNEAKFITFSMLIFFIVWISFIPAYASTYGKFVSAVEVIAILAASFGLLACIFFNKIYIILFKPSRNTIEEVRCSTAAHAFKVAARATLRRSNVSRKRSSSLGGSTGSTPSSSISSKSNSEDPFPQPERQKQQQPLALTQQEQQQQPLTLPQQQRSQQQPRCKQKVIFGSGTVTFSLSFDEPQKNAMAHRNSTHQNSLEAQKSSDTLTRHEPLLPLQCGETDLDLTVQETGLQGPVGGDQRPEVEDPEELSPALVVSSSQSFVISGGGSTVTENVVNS
Nature of the data set: Antagonist activity at calcium-sensing receptor expressed in HEK293 cells by FLIPR assay. In kind it is functional, cell-based.

The nature of data set [2]: Aqueous solubility at pH 4.5. In kind it is physicochemical.
Data set [3] in a line: Aqueous solubility at pH 6.5. The class given is physicochemical.

For `COc1cc(-c2nc(NCCC(C)C)ncc2C(=O)NCCOc2ccccc2)cc(OC)c1OC`, the pIC50 in data set [1] was 5.66.

Turning to `COc1ccc(-c2nc(NCc3ccc4c(c3)OCO4)ccc2C(=O)NCCOc2ccccc2)c(OC)n1`, the pIC50 in data set [1] was 7.22.

As for `COc1ccccc1CCNc1ncc(C(=O)NCCOc2ccccc2)c(-c2cc(OC)c(OC)c(OC)c2)n1`, in data set [1], the pIC50 is 6.47.

On to `COc1ccc(CCNc2ncc(C(=O)NCCOc3ccccc3)c(-c3cc(OC)c(OC)c(OC)c3)n2)cc1`, for which, in data set [1], the pIC50 was 5.55.

With `COc1ccc(-c2nc(N(C)Cc3ccccc3)ncc2C(=O)NCCOc2ccccc2)cc1`, in data set [1], the pIC50 was less than 4.52.

For the compound `CCN(Cc1ccccc1)c1ncc(C(=O)NCCOc2ccccc2)c(-c2ccc(OC)nc2OC)n1`, the pIC50 in data set [1] was 6.44.

Consider `COc1cc(-c2nc(N(C)CCc3ccccc3)ncc2C(=O)NCCOc2ccccc2)cc(OC)c1OC`, for which, in data set [1], the pIC50 is 5.82.

In the case of `COc1cc(-c2nc(NCc3ccc4c(c3)OCO4)ccc2C(=O)NCCOc2ccccc2)cc(OC)c1OC`, in data set [1], the pIC50 was 6.89.

Consider `COc1cc(-c2nc(NCc3ccccn3)ncc2C(=O)NCCOc2ccccc2)cc(OC)c1OC`, for which, in data set [1], the pIC50 is less than 4.52.

Take `COc1cc(-c2nc(NCc3ccc4c(c3)OCO4)ncc2C(=O)NCCOc2ccccc2)cc(OC)c1OC`: the pIC50 in data set [1] is 6.82.

`COc1cc(-c2nc(N[C@@H](CO)Cc3ccccc3)ncc2C(=O)NCCOc2ccccc2)cc(OC)c1OC`: the pIC50 in data set [1] was less than 4.52.

On to `COc1ccccc1-c1nc(N(C)Cc2ccccc2)ncc1C(=O)NCCOc1ccccc1`, for which, in data set [1], the pIC50 is less than 4.52.

With `COc1ccc(-c2nc(NCc3ccc4c(c3)OCO4)ncc2C(=O)NCCOc2ccccc2)c(OC)n1`, the negative logarithm of the IC50 (pIC50) in data set [1] was 6.66.

For the compound `COc1cc(-c2nc(NCc3cccc(Cl)c3)ccc2C(=O)NCCOc2ccccc2)cc(OC)c1OC`, the pIC50 in data set [1] was 6.79.

For `CCN(Cc1ccccc1)c1ncc(C(=O)NCCOc2ccccc2)c(C2CCCCC2)n1`, the pIC50 in data set [1] is less than 4.52.

With `COc1ccc(-c2nc(NCc3cccc(Cl)c3)ccc2C(=O)NCCOc2ccccc2)c(OC)n1`, in data set [1], the pIC50 was 6.71.

Consider `COc1cc(-c2nc(N[C@H](CO)Cc3ccccc3)ccc2C(=O)NCCOc2ccccc2)cc(OC)c1OC`, for which the pIC50 in data set [1] is 7.12.

Consider `COc1cccc(CCNc2ncc(C(=O)NCCOc3ccccc3)c(-c3cc(OC)c(OC)c(OC)c3)n2)c1`, for which, in data set [1], the pIC50 was 6.00.

Take `COc1ccc(CNc2ncc(C(=O)NCCOc3ccccc3)c(-c3cc(OC)c(OC)c(OC)c3)n2)cc1`: the pIC50 in data set [1] is 5.51.

Turning to `COc1ccc(-c2nc(N[C@H](CO)Cc3ccccc3)ccc2C(=O)NCCOc2ccccc2)c(OC)n1`, the solubility was 36 µg/mL (≈ 68.1 µM) in data set [2] and 11 µg/mL (≈ 20.8 µM) in data set [3]. In addition, in data set [1], the pIC50 was 6.85.

For `COc1cccc(-c2nc(N(C)Cc3ccccc3)ncc2C(=O)NCCOc2ccccc2)c1`, the pIC50 in data set [1] is less than 4.52.

With `COc1ccc(-c2nc(NCc3ccc4c(c3)OCO4)ncc2C(=O)N2CCc3ccccc3C2)c(OC)n1`, in data set [1], the pIC50 is 6.44.

As to `COc1cc(-c2nc(N(C)Cc3ccccc3)ncc2C(=O)NCCOc2ccccc2)cc(OC)c1OC`, in data set [1], the pIC50 is 6.33.

Consider `CCN(Cc1ccccc1)c1ncc(C(=O)NCCOc2ccccc2)c(-c2cc(OC)c(OC)c(OC)c2)n1`, for which the solubility in data set [2] and in data set [3] was less than 1 µg/mL in each case. The pIC50 in data set [1] was 6.70.

On to `COc1ccc(-c2nc(NCc3ccc4c(c3)OCO4)ncc2C(=O)NC(C)Cc2ccc(Cl)cc2)c(OC)n1` (stereo not drawn), for which the pIC50 in data set [1] is 6.82.

`COc1cc(-c2nc(NCc3cccnc3)ncc2C(=O)NCCOc2ccccc2)cc(OC)c1OC`: the negative logarithm of the IC50 (pIC50) in data set [1] is less than 4.52.

With `CCN(Cc1ccccc1)c1ncc(C(=O)NCCc2ccccc2)c(-c2cc(OC)c(OC)c(OC)c2)n1`, in data set [1], the pIC50 is less than 4.52.

As to `COc1cc(-c2nc(NCc3ccccc3)ncc2C(=O)NCCOc2ccccc2)cc(OC)c1OC`, the pIC50 in data set [1] was 6.14.

`COc1cc(-c2nc(NCc3ccccc3Cl)ncc2C(=O)NCCOc2ccccc2)cc(OC)c1OC`: the pIC50 in data set [1] was 5.31.

With `CCN(Cc1ccccc1)c1ncc(C(=O)NCCCCc2ccccc2)c(-c2cc(OC)c(OC)c(OC)c2)n1`, the pIC50 in data set [1] is 5.74.

With `COc1cccc(CNc2ncc(C(=O)NCCOc3ccccc3)c(-c3cc(OC)c(OC)c(OC)c3)n2)c1`, the pIC50 in data set [1] was 6.47.

In the case of `COc1cc(-c2nc(N[C@H](CO)Cc3ccccc3)ncc2C(=O)NCCOc2ccccc2)cc(OC)c1OC`, in data set [1], the pIC50 is 6.82.

With `CCN(Cc1ccccc1)c1ncc(C(=O)NCCOc2ccccc2)c(-c2ccccc2)n1`, in data set [1], the pIC50 was less than 4.52.

As to `COc1cc(-c2nc(NCCc3cccnc3)ncc2C(=O)NCCOc2ccccc2)cc(OC)c1OC`, the pIC50 in data set [1] was less than 4.52.

Take `CCN(Cc1ccccc1)c1ccc(C(=O)NCCOc2ccccc2)c(-c2cc(OC)c(OC)c(OC)c2)n1`: the pIC50 in data set [1] is 6.81.

Regarding `CCN(Cc1ccccc1)c1ncc(C(=O)NCCCc2ccccc2)c(-c2cc(OC)c(OC)c(OC)c2)n1`, in data set [1], the pIC50 was 5.68.

In the case of `COc1cc(-c2nc(NCCc3ccccn3)ncc2C(=O)NCCOc2ccccc2)cc(OC)c1OC`, in data set [1], the pIC50 was less than 4.52.

Regarding `COc1cc(-c2nc(NCCc3ccccc3)ncc2C(=O)NCCOc2ccccc2)cc(OC)c1OC`, the pIC50 in data set [1] is 6.40.

Consider `COc1ccc(-c2nc(N(C)Cc3ccccc3)ncc2C(=O)NCCOc2ccccc2)cc1OC`, for which the pIC50 in data set [1] is 5.16.

On to `CCN(Cc1ccccc1)c1ccc(C(=O)NCCOc2ccccc2)c(-c2ccc(OC)nc2OC)n1`, for which, in data set [1], the pIC50 is 5.98.

As for `COc1cc(-c2nc(NCc3ccccc3C)ncc2C(=O)NCCOc2ccccc2)cc(OC)c1OC`, the pIC50 in data set [1] was 5.00.

Turning to `COc1cc(-c2nc(NCc3cccc(Cl)c3)ncc2C(=O)NCCOc2ccccc2)cc(OC)c1OC`, in data set [1], the pIC50 is 7.15.

As to `COc1cc(OC)cc(-c2nc(N(C)Cc3ccccc3)ncc2C(=O)NCCOc2ccccc2)c1`, the pIC50 in data set [1] was less than 4.52.

As to `CN(Cc1ccccc1)c1ncc(C(=O)NCCOc2ccccc2)c(-c2ccc(C(F)(F)F)cc2)n1`, the pIC50 in data set [1] was 4.72.

In general, pIC50 refers to −log10 of the IC50, conventionally taken in molar units. Usually solubility stands for the concentration that dissolves in the medium under given conditions. Higher therefore signals a readily soluble substance.
